# Literature values in patent US20160000731A1, “SORE-THROAT COMPOSITIONS AND RELATED METHODS” (Xlear, Inc., priority 2014, published 2016).
# Assays:
# Streptococcus pneumonia = settings: in vitro, during its logarithmic growth phase
# dental caries = settings: regular consumption
compound,measurement,setting,value
OC[C@@H](O)[C@H](O)[C@@H](O)CO [Xylitol],growth of Streptococcus pneumonia,Streptococcus pneumonia,inhibit the growth
same,incidence of dental caries,dental caries,reduce the incidence of dental caries
